Experimental data from ChEMBL document CHEMBL1201862, “PubChem BioAssay data set” (2004).
Active and inactive are the calls of the source.

Key:
[1] = lymphoblastoid cell cytotoxicity, dose response, cytotoxicity control, plate reader, dry powder, set 2 (AID 624367); type: functional
[2] = HEK293 cell viability, dose response, counter-screen for EBV LMP1 inhibitor project, dry powder, set 2 (AID 624374); type: functional
[3] = cytotoxicity dependent on PAX8, dose response, cell-based, plate reader, dry powder (AID 743049); type: functional
[4] = cytotoxicity in OVCAR8 ovarian cancer cells, dose response, PAX8 project, cell-based, plate reader, dry powder samples (AID 743197); type: functional; details: OVCAR-8
[5] = PAX5 activity inhibitors, dose response, selectivity assay for PAX8 inhibitor project, cell-based, plate reader, dry powder samples (AID 743047); type: functional;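 note: HEK293 cells carrying a Pax5 driven CD19 promoter luciferase reporter; potency of inhibitors that lower reporter luminescence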
[6] = A2780 ovarian cancer cell cytotoxicity, dose response, cytotoxicity control, plate reader, dry powder samples (AID 743046); type: functional, cell-based
Paired box protein Pax-8 = Paired box protein Pax-8 (Homo sapiens, UniProt Q06710); assay: inhibitors of PAX8-driven TPO luciferase reporter, dose response, RMG-I cells, cherry-pick (AID 687027); type: functional, cell-based;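 note: luciferase reporter driven by Pax8 target thyroperoxidase promoter measured by SteadyGlo luminescence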
[7] = cytotoxicity in COV434 cells, dose response, cytotoxicity control for PAX8 inhibitor project, cell-based, plate reader, dry powder, SA7 (AID 743145); type: functional
[8] = PAX2 cell-based inhibition, dose response, selectivity assay for PAX8 inhibitor project, plate reader, dry powder samples (AID 743048); type: functional;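 note: HEK293 cells carrying a WT1 promoter luciferase reporter driven by expressed Pax2; potency is for inhibition of Pax2 driven reporter signal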
[9] = molecular target: Metabotropic glutamate receptor 3 (Rattus norvegicus, UniProt P31422); assay: mGlu3 NAM potency via calcium readout, dose response, mGlu3 NAM project, TREx293 cells, Galpha15, calcium flux (AID 651840); type: functional
[10] = molecular target: Endoplasmic reticulum aminopeptidase 1 (Homo sapiens, UniProt Q9NZ08); assay: ERAP1 aminopeptidase inhibitors, dose response, biochemical, cherry-pick, set 2, plate reader (AID 743314)
Kallikrein-7 = Kallikrein-7 (Homo sapiens, UniProt P49862); assay: Fluorescence Intensity-based biochemical primary high throughput dose response assay to identify activators of kallikrein-7 (K7) zymogen.
[11] = inhibitors of PGC1a acetylation in cells, dose response, cell-based, cherry-picked samples (AID 720514); type: functional;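 note: potency may reflect raised or lowered acetylation signal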
[12] = Late stage assay provider results from the probe development effort to identify selective inhibitors of heat shock protein 90 (HSP90): Absorbance-based cell proliferation assay in MCF7 cells.; type: functional
[13] = Late stage assay provider results from the probe development effort to identify selective inhibitors of heat shock protein 90 (HSP90): Absorbance-based cell proliferation assay in SKBR3 cells.; type: functional; details: SK-BR-3
[14] = T. cruzi growth inhibition in host cells, dose response, cell-based, plate reader, dry powder, set 2 (AID 652275); type: functional
[15] = inhibitors of non-replicating M. tuberculosis, dose response, luciferase, dry powder (AID 651619); type: functional; details: Mycobacterium tuberculosis
[16] = A549 cell cytotoxicity, dose response, cytotoxicity control, cherry-picks, 26 µM top dose (AID 1053119); type: functional, cell-based
[17] = HepG2 cell cytotoxicity, dose response, cytotoxicity control, cherry-picks, set 5 (AID 1053118); type: functional, cell-based
[18] = HEK293 cell cytotoxicity, dose response, cytotoxicity control, cherry-picks, set 5 (AID 1053117); type: functional, cell-based
[19] = Late stage assay provider results from the probe development effort to identify inhibitors of Protein Arginine Deaminase 4 (PAD4): cell-based absorbance-based assay to assess cytotoxicity of test compounds.; type: functional

Sequence of Metabotropic glutamate receptor 3 (P31422 whole entry): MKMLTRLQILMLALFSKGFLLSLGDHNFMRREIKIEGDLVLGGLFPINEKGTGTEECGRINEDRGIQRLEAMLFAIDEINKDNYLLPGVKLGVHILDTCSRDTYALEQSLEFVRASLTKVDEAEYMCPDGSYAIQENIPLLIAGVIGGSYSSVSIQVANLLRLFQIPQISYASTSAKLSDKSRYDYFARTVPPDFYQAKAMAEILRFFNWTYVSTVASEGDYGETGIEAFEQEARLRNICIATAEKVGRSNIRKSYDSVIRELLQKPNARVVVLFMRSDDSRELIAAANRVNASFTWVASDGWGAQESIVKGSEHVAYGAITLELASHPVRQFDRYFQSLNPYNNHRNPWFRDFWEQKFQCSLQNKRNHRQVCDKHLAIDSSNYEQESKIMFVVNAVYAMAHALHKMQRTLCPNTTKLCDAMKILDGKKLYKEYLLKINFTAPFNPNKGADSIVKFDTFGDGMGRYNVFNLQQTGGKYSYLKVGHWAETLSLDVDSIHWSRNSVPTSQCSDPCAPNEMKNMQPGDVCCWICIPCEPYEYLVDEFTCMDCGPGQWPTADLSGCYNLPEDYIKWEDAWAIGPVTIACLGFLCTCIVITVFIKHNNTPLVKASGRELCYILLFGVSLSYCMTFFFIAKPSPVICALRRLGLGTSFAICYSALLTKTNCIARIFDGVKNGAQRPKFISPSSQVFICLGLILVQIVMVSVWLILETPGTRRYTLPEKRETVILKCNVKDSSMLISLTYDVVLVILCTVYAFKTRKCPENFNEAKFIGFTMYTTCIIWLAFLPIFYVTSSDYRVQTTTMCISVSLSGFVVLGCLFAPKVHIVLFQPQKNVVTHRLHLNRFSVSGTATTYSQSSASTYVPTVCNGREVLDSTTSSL
Sequence of Endoplasmic reticulum aminopeptidase 1 (Q9NZ08 whole entry): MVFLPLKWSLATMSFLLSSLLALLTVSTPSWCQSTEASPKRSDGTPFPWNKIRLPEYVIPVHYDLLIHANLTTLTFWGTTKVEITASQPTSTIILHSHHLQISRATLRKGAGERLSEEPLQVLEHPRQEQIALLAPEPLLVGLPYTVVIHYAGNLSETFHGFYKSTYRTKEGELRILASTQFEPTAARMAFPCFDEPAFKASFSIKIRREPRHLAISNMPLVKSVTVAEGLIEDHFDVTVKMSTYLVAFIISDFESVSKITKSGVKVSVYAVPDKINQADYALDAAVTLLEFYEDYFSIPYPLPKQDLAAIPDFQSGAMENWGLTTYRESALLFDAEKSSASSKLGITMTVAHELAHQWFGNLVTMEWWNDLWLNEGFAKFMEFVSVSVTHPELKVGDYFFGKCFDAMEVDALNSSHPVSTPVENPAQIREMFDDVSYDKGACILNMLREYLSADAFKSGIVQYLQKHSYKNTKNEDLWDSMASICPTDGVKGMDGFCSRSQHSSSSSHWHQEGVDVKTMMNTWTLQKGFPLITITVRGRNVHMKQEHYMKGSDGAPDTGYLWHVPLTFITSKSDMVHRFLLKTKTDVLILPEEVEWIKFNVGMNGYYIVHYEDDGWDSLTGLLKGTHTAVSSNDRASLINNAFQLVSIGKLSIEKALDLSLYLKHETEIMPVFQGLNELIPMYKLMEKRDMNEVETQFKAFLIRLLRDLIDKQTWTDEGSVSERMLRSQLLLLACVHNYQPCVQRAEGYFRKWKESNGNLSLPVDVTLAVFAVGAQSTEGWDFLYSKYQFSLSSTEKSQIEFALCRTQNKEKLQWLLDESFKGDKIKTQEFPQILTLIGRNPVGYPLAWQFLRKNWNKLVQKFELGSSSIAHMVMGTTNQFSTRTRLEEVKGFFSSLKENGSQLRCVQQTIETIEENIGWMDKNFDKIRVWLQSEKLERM
Sequence of Paired box protein Pax-8 (Q06710 whole entry): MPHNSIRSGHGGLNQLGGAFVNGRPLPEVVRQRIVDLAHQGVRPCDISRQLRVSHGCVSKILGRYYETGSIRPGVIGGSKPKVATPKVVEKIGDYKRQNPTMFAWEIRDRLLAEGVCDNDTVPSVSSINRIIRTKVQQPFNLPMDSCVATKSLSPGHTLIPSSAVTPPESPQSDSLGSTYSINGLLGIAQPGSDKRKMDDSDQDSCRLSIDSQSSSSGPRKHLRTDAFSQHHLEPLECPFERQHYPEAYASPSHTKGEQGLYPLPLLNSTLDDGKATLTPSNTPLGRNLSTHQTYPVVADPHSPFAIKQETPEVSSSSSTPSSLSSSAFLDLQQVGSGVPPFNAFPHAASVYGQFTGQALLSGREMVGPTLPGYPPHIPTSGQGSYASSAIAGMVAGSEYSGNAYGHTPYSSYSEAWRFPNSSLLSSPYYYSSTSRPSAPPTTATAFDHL
Sequence of Kallikrein-7 (P49862 whole entry): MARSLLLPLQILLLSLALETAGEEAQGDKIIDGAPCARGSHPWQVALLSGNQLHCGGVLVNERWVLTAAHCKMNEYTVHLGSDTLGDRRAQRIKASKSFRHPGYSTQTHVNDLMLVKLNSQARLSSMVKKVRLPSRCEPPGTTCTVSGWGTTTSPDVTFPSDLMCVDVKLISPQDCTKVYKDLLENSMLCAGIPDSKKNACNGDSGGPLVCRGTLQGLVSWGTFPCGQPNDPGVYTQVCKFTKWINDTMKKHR

COc1cccc(C#Cc2ccc([C@@H]3[C@H](C#N)N(C(=O)c4ccccn4)[C@H]3CO)cc2)c1
AbsAC35 [1]: 55.61 µM | AbsAC35 [2]: 296.86 µM | AC50 [3]: 35.1 µM (active) | AC50 [4]: 63.7 µM (active) | AC50 [5]: > 70 µM (inactive) | AC50 [6]: 12.7 µM (active) | AC50 (Paired box protein Pax-8): 11.9 µM (active) | AC50 [7]: > 70 µM (inactive) | AC50 [8]: > 70 µM (inactive)

COc1ccc(C#Cc2ccc(C(=O)N3CCCC(C)(O)C3)cc2)cc1 (stereo unspecified)
IC50 [9]: 0.525 µM

CCC(=O)N1[C@@H]2c3ccc(/C=C/c4ccccc4)c(=O)n3C[C@H]1[C@H](CO)[C@H]2C(=O)N(C)C
AC50 [10]: 9.44 µM (active)

Nc1nc2ccc(Cl)cc2cc1C(=O)NCCCN1CCOCC1
EC50 (Kallikrein-7): 28.3 µM (inactive)

C[C@H](CO)N1C[C@H](C)[C@@H](CN(C)CC2CCOCC2)Oc2ncc(Br)cc2C1=O
AC50 [11]: 36.4 µM (active)

COC(=O)c1cccc(COc2ccc3cc(Br)c(=O)oc3c2)c1
IC50 [12]: > 100 µM (inactive) | IC50 [13]: > 100 µM (inactive)

CC(C)N1CC2(CN(Cc3ccc(-c4ccccc4)cc3)C2)Oc2c(NC(=O)c3ccncc3)cccc2C1=O
AC50 [14]: 0.00131 µM (active)

[N-]=[N+]=NCCOCCNC(=O)CCCn1cc(C[S+]([O-])c2nnc(-c3ccc(F)cc3)o2)nn1 (stereo unspecified)
IC90 [15]: 125 µM (active)

C[C@H](CO)N1C[C@H](C)[C@@H](CN(C)C(=O)Nc2cccc3ccccc23)Oc2c(NC(=O)Nc3ccc(C(F)(F)F)cc3)cccc2C1=O
AC50 [16]: > 52 µM (inactive) | AC50 [17]: 34.4 µM (active) | AC50 [18]: > 52 µM (inactive)

NC1=CC(=O)c2ccc(-c3cccc(C(=O)O)n3)nc2C1=O
CC50 [19]: 26.5 µM (inactive)
